From PMC6351562, “Structure, function, and inhibition of drug reactivating human gut microbial β-glucuronidases” (Scientific Reports, 2019)
Where two headings read alike, the source gives them in different places.

Legend:
[1] = target: Clostridium perfringens GUS (CpGUS) (Clostridium perfringens, UniProt Q8VNV4); test: biochemical; assay type: biochemical
[2] = target: T1, Faecalibacterium prausnitzii GUS (FpGUS) (Faecalibacterium duncaniae, UniProt C7H4D2); test: In vitro inhibition assay (pNPG hydrolysis); assay type: biochemical; details: for IC50: pNPG 900 µM
T1 sequence (C7H4D2 1-608): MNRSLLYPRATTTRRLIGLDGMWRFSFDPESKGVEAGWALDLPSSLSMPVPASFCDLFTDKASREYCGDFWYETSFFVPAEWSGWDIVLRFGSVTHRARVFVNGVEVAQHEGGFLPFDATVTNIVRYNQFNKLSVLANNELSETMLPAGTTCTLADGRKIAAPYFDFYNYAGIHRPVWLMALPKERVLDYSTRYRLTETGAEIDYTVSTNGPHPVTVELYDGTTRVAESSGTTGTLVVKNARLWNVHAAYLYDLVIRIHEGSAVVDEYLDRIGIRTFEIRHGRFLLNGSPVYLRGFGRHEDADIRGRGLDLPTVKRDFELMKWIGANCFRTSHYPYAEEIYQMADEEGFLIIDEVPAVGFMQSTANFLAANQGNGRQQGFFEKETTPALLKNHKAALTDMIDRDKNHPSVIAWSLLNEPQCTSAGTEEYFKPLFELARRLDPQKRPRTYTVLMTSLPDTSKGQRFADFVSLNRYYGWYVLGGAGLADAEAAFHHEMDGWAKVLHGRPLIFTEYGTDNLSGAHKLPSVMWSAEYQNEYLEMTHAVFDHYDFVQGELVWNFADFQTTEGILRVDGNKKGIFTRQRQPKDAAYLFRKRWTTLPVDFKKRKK

[3] = target: T2, Lactobacillus rhamnosus GUS (LrGUS) (Lacticaseibacillus rhamnosus, UniProt A0A2A5L2J1); test: In vitro inhibition assay (pNPG hydrolysis); assay type: biochemical
T2 sequence (A0A2A5L2J1 1-603): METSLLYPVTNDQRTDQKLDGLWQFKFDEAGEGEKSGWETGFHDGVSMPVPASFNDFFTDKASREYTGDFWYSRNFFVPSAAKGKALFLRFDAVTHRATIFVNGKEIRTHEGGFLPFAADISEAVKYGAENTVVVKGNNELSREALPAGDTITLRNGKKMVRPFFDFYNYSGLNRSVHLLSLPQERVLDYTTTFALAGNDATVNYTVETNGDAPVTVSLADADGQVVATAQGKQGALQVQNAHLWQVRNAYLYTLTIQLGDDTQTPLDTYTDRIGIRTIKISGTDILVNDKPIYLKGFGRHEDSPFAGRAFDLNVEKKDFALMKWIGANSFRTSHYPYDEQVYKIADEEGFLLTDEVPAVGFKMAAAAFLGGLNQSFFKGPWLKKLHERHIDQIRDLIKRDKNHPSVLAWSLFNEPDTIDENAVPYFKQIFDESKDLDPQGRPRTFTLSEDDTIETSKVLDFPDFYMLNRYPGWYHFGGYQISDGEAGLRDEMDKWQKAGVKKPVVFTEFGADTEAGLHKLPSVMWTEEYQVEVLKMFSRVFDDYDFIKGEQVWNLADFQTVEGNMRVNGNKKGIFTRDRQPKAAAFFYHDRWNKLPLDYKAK

[4] = target: T3, Bacteroides uniformis GUS (BuGUS) (Bacteroides uniformis, UniProt A0A078SUX9); test: In vitro inhibition assay (pNPG hydrolysis); assay type: biochemical
T3 sequence (A0A078SUX9 32-886): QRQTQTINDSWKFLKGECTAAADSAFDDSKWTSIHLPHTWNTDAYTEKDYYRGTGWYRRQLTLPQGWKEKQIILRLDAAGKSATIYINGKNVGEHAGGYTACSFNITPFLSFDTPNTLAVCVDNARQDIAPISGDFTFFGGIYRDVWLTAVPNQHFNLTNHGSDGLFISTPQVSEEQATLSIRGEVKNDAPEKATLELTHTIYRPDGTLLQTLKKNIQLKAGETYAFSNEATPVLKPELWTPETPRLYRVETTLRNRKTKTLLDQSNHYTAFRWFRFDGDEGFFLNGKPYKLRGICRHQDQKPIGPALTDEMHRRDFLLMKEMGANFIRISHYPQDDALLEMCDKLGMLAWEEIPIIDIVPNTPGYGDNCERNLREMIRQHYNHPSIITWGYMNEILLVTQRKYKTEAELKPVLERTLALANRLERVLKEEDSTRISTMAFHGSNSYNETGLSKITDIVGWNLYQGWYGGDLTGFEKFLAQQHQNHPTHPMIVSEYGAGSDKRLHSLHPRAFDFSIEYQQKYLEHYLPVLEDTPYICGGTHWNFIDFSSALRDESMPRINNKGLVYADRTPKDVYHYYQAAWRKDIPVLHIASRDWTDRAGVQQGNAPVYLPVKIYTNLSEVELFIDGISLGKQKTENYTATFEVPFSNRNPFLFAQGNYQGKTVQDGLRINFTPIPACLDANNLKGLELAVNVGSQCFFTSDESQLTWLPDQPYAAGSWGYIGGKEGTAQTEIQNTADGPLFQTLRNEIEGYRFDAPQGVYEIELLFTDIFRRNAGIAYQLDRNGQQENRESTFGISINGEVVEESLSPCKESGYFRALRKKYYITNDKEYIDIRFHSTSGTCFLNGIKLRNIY

EcGUS F365A = assay type: biochemical, E. coli; details: IC50 curves, Fig. S14
E. coli GUS (EcGUS) = E. coli GUS (EcGUS) (Escherichia coli, UniProt P05804); design: method as in PMID 21051639, PMID 26364932, PMID 30062115; details: earlier work; cited from earlier work
Sequence of E. coli GUS (EcGUS) (P05804 whole entry): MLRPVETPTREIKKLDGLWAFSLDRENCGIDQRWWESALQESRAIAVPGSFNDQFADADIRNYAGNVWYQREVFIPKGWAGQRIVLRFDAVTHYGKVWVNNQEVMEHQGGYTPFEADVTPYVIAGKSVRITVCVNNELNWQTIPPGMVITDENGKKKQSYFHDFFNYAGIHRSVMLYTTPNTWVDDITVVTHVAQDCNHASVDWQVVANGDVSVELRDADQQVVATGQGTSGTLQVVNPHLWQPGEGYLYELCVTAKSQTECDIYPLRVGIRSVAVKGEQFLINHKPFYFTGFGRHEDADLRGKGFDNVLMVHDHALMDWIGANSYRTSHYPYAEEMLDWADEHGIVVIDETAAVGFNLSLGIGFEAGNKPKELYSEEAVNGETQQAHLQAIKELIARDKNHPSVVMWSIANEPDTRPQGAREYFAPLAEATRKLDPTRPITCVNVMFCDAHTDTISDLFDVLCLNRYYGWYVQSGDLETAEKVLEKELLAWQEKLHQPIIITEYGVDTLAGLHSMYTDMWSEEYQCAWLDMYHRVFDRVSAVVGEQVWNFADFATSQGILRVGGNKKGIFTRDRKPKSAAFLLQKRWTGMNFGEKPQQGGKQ

[5] = target: Bacteroides fragilis GUS (BfGUS) (Bacteroides fragilis, UniProt Q5LIC7); design: method as in PMID 21051639, PMID 26364932, PMID 30062115; details: earlier work; cited from earlier work
Sequence of Bacteroides fragilis GUS (BfGUS) (Q5LIC7 whole entry): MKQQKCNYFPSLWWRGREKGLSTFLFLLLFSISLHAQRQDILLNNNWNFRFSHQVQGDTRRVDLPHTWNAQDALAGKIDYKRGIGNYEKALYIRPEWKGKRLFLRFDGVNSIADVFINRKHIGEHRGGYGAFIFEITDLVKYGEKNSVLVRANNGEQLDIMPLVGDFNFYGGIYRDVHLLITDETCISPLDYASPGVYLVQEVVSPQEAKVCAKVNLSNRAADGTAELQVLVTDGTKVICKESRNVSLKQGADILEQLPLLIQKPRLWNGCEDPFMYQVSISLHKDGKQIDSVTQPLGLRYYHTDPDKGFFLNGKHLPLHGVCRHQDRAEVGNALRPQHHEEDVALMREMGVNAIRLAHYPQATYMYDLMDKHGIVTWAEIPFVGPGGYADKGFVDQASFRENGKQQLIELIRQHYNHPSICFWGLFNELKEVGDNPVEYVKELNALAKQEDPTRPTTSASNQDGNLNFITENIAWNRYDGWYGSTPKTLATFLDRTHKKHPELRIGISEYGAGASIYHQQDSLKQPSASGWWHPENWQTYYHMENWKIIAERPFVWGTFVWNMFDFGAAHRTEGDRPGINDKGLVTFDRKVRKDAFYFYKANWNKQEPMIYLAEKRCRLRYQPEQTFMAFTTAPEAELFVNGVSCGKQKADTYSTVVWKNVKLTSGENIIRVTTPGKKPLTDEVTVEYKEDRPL

[6] = read-out: Inhibitor 1 (IC50, nM) pH 7.5, pH 7.5, pNPG 900 µM
[7] = pH 6.5, read-out: UNC10201652 (IC50, nM) pH 6.5
[8] = pH 7.5, pNPG 900 µM, read-out: UNC10201652 (IC50, nM) pH 7.5
[9] = read-out: UNC10201652 (IC50, nM) pH 6.5

Compound: CCOc1ccc(NC(=S)N(CCO)Cc2cc3cc(C)cc(C)c3[nH]c2=O)cc1 [Inhibitor 1]
- IC50 ([1]; Inhibitor 1 (IC50, nM) pH 6.5): > 100000 nM
- IC50 ([1]; Inhibitor 1 (IC50, nM) pH 7.5): > 100000 nM
- IC50 ([2]; Inhibitor 1 (IC50, nM) pH 6.5, pH 6.5): > 100000 nM
- IC50 ([2]; Inhibitor 1 (IC50, nM) pH 7.5, pH 7.5): > 100000 nM
- IC50 [3]: > 100000 nM
- IC50 [3, 6]: > 100000 nM
- IC50 [4]: > 100000 nM
- IC50 [4, 6]: > 100000 nM
- potency toward EcGUS F365 mutant compared with WT (EcGUS F365A): less potent
- inhibition of EcGUS (in words) (E. coli GUS (EcGUS)): potent
- inhibition of BfGUS (in words) [5]: did not inhibit

Compound: C1CCc2c(c(N3CCOCC3)nc3sc4c(N5CCNCC5)nnnc4c23)C1 [UNC10201652]
- decrease in potency from pH 7.5 to pH 6.5 [1]: 6 fold
- IC50 ([1]; IC50): 26 to 160 nM
- IC50 [1, 7]: 160 ± 10 nM
- IC50 ([1]; pH 7.5, read-out: UNC10201652 (IC50, nM) pH 7.5): 26 ± 3 nM
- inhibition at 100 µM ([2]; 100 µM, pH 6.5, read-out: inhibition at 100 µM UNC10201652): < 80%
- IC50 [2, 7]: > 100000 nM
- IC50 ([2]; pH 7.5, 1 hour end point, read-out: UNC10201652 (IC50, nM) pH 7.5): > 3000 nM
- IC50 [3, 8]: > 100000 nM
- IC50 [3, 9]: > 100000 nM
- inhibition (in words) ([4]; UNC10201652, text in picture of Fig. 7c): No Inhibition
- IC50 [4, 8]: > 100000 nM
- IC50 [4, 9]: > 100000 nM
- potency toward EcGUS F365 mutant compared with WT (EcGUS F365A): less potent
- inhibition of EcGUS (in words) (E. coli GUS (EcGUS)): potent
- inhibition of BfGUS (in words) [5]: did not inhibit
